Entries after “also recorded” stand apart in the source; their conditions may differ. Where two headings read alike, the source gives them in different places.
Key:
[1] = test system: FVB/N mice with serine/threonine kinase (AKT) overexpressed in the liver (NAFL-NASH-liver fibrosis)
Experimental: The serine/threonine kinase (AKT) and transposase plasmids were injected into the liver of the mice by a transposition system through hydrodynamics. The serine/threonine kinase was specifically overexpressed in the liver, and the mice except the control group were modeled. One week later, nonalcoholic fatty liver (NAFL) was formed; two weeks later, steatohepatitis (NASH) was formed; and four weeks later, a primary hepatic fibrosis model was established. In the formation of NAFL-NASH-liver fibrosis, the therapeutic effect of KD was observed.

[2] = test system: SD mice with ANIT induced intrahepatic cholestasis; assay: ANIT-induced intrahepatic cholestasis; assay type: in vivo
Experimental: 42 SPF SD mice were purchased and raised in the SPF experimental animal center of Tongji Medical College of Huazhong University of Science and Technology. They were provided with standard diet and drinking water. The room temperature was controlled at 23±2° C. After 3 days of adaptive feeding, they were given drugs by intragastric administration. 42 SD mice were randomly divided into 7 groups (normal control group, ANIT model group, KD low-dose group, KD medium dose group, KD high-dose group, UDCA positive control group and KD negative control group), 6 mice in each group were weighed and recorded daily. […] Thereafter, the drug was given again every 24 hours for 3 times, and the animals in each group were fasted (water was provided) after the third time. 72 hours later, the animals were killed and samples were collected.

[3] = test system: C57BL/6J mice with alcoholic liver fibrosis; assay: Alcoholic liver fibrosis (Lieber-DeCarli liquid diet + CCl4); assay type: in vivo
Experimental: C57BL/6J mice aged 8 weeks were raised in the SPF experimental animal center of Tongji Medical College of Huazhong University of Science and Technology. They were provided with standard diet and drinking water. The room temperature was controlled at 23±2° C. After 7 days of adaptive feeding, they were given drugs by intragastric administration.
The mice were fed with a 5% alcoholic Lieber-DeCarli liquid diet and intraperitoneal injection of CCl4 (CCl4 was intraperitoneally injected twice a week for the last four weeks). The mice were developed alcoholic fatty liver disease. The mice were administered with alcohol and drugs. Spherically, drinking water were administered to the control group and the model group, and different doses were administered to the dose groups.

[4] = high, medium and low dose groups

O=C1C[C@@H](O[C@@H]2O[C@H](CO)[C@@H](O)[C@H](O)[C@H]2O)CO1 [KD]
IFN-γ ([1]; NASH, KD 30 mg/kg): 32.43 ± 0.98 pg/mL | IL-2 ([1]; NASH, KD 30 mg/kg): 169.13 ± 13.10^##Δ pg/mL | IL-10 ([1]; NASH, KD 30 mg/kg): 91.20 ± 0.56^##ΔΔ pg/mL | IL-12 ([1]; NASH, KD 30 mg/kg): 106.38 ± 1.18^##Δ pg/mL | NO ([1]; NASH, KD 30 mg/kg): 48.15 ± 1.86^##ΔΔ μmol/L | TNF-α ([1]; NASH, KD 30 mg/kg): 2.35 ± 0.10^##ΔΔ pg/mL | serum ALT and AST ([1]; during development of liver fibrosis): decreased after KD treatment | expression of MMP-13 in the liver (qPCR) [1, 4]: promoted the expression of matrix metalloproteinase-13 (MMP-13) | expression of α-SMA, Col I and TIMP-1 in the liver (qPCR) [1, 4]: could effectively inhibit the expression | release of inflammatory response marker NO [1, 4]: inhibited the release of the inflammatory response marker NO | secretion of IL-10 (Th2-type cells) [1, 4]: promoted the secretion of the inflammatory cytokine IL-10 | secretion of inflammatory cytokines IFN-γ, TNF-α and IL-2 (Th1) [1, 4]: reduced the secretion of the inflammatory cytokines IFN-γ, TNF-α and IL-2 | width of the inferior vena cava, left lobe thickness, right lobe obliquity and spleen thickness (ultrasound) ([1]; high, middle and low dose groups): can significantly reduce the width of the inferior vena cava, left lobe thickness, right lobe obliquity and spleen thickness | IFN-γ ([1]; liver fibrosis, KD 10 mg/kg): 85.76 ± 8.25 pg/mL | IL-2 ([1]; liver fibrosis, KD 10 mg/kg): 101.73 ± 0.70^##ΔΔ pg/mL | IL-10 ([1]; liver fibrosis, KD 10 mg/kg): 128.28 ± 24.84 pg/mL | IL-12 ([1]; liver fibrosis, KD 10 mg/kg): 253.62 ± 7.20 pg/mL | NO ([1]; liver fibrosis, KD 10 mg/kg): 52.13 ± 1.40 µmol/L | TNF-α ([1]; liver fibrosis, KD 10 mg/kg): 13.46 ± 9.31^ΔΔ pg/mL | IFN-γ ([1]; liver fibrosis, KD 20 mg/kg): 57.19 ± 1.65^##ΔΔ pg/mL | IL-2 ([1]; liver fibrosis, KD 20 mg/kg): 104.72 ± 0.71^##ΔΔ pg/mL | IL-10 ([1]; liver fibrosis, KD 20 mg/kg): 206.66 ± 1.91^##ΔΔ pg/mL | IL-12 ([1]; liver fibrosis, KD 20 mg/kg): 174.77 ± 2.72 pg/mL | NO ([1]; liver fibrosis, KD 20 mg/kg): 54.11 ± 15.40 µmol/L | TNF-α ([1]; liver fibrosis, KD 20 mg/kg): 8.41 ± 0.52 pg/mL | IFN-γ ([1]; liver fibrosis, KD 30 mg/kg): 53.38 ± 1.65^##ΔΔ pg/mL | IL-2 ([1]; liver fibrosis, KD 30 mg/kg): 93.91 ± 2.05^##ΔΔ pg/mL | IL-10 ([1]; liver fibrosis, KD 30 mg/kg): 140.44 ± 7.64 pg/mL | IL-12 ([1]; liver fibrosis, KD 30 mg/kg): 242.08 ± 5.44 pg/mL | NO ([1]; liver fibrosis, KD 30 mg/kg): 59.06 ± 1.40 µmol/L | TNF-α ([1]; liver fibrosis, KD 30 mg/kg): 2.38 ± 0.57 pg/mL | fiber formation (Masson staining) ([1]; mouse, in vivo): had inhibitory effect on the fiber formation | oxidative stress injuries (MDA, SOD) ([1]; mouse, in vivo): could reverse these oxidative stress injuries | secretion of ALT, AST and inflammatory cytokines ([1]; mouse, in vivo): did not affect the secretion of ALT, AST and inflammatory cytokines | shear wave velocity of SWE (liver) ([1]; mouse, in vivo): could significantly reduce the shear wave velocity | plasma biochemical indexes ([2]; 100 mg/kg KD to normal mice): did not change | plasma color ([2]; KD 50, 100, 200 mg/kg or UDCA 80 mg/kg by gavage): turned light yellow similar to that of the normal control group | expression of Fxr and Cyp7a1 genes ([2]; cholestasis mice, high-dose KD): can significantly up regulate the expression of Fxr and Cyp7a1 genes | expression of Bsep, Mrp2 and Mrp3 genes ([2]; cholestasis mice, medium and high-dose KD): can significantly up regulate the expression of Bsep, Mrp2 and Mrp3 genes | hepatic sinusoid and inflammatory cell infiltration (HE staining) ([2]; different doses of KD, UDCA treatment group): the expansion of hepatic sinusoid was improved and the infiltration of inflammatory cells was reduced | plasma ALT, AST, AKP, TBIL and DBIL ([2]; low, medium and high doses of KD, 80 mg/kg UDCA): can significantly reduce ALT, AST, AKP, TBIL and DBIL | plasma TBA ([2]; medium and high doses of KD, 80 mg/kg UDCA): can significantly reduce TBA | ANIT-induced intrahepatic cholestasis liver injury (overall) ([2]; mouse, in vivo): can alleviate the liver injury induced by ANIT; also recorded: has a good therapeutic effect on ANIT-induced intrahepatic cholestasis liver injury | fibrosis degree (Masson staining) ([3]; 40 and 20 mg/kg KD): can significantly reduce the degree of fibrosis in mice; also recorded: the fibrosis degree was reduced | inflammatory cells and Mallory bodies (H&E staining) ([3]; 40 and 20 mg/kg KD): the inflammatory cells in the KD group were reduced compared with the model group | SOD activity in the liver homogenate / oxidative stress injuries ([3]; ALF mice): increased the activity of superoxide dismutase (SOD) in the liver of AFL and ALF mice; also recorded: could reverse the oxidative stress injuries | serum ALT ([3]; ALF mice): decreased the serum alanine aminotransferase (ALT) of AFL and ALF mice; also recorded: decreased after KD treatment | secretion of TNF-α and IL-6 ([3]; high and medium dose groups): inhibited the secretion of TNF and IL6 in AFL and ALF; also recorded: reduced the secretion of the inflammatory cytokine TNF-α and IL-6 | therapeutic effect on alcoholic liver fibrosis (overall) ([3]; mouse, in vivo): has a good therapeutic effect on alcoholic fatty liver and alcoholic liver fibrosis
